The species named for data set [1] is Equus caballus. Briefly: Kinetic resolution using horse liver esterase, 3 U.mL e-1 at 48 hr expressed as percent ee unreacted. Format: ADME, organism-based. Conditions: in vivo.
The species named for data set [2] is Sus scrofa. Briefly: Kinetic resolution using pig liver esterase, 240 U.mL e-1 at 48 hr expressed as percent ee unreacted. Type of data set: ADME, organism-based. Conditions: in vivo.
Data set [3] in a line: Kinetic resolution using papain, 170 U.mL e-1 at 24 hr expressed as percent ee unreacted. Format: ADME.
Data set [4] can be described thus: Kinetic resolution using alpha-chymotrypsin, 375 U.mL e-1 at 72 hr expressed as percent ee unreacted. Format: ADME.

On to `CCOP(=O)(OCC)c1coc(C[C@H](NC(=O)OC(C)(C)C)C(=O)O)c1`, for which the values for the Unreacted drug in data set [1], in data set [2] and in data set [3] were 50%, 60% and 75%, respectively.
With `CCOC(=O)[C@@H](Cc1cc(P(=O)(OCC)OCC)co1)NC(=O)OC(C)(C)C`, the Unreacted drug in data set [4] is reported as 0%; in data set [1] it was 60%; in data set [2], 70%; in data set [3], over 96%.

The values are drawn from ChEMBL document CHEMBL1131720, “Phosphofurylalanine, a stable analog of phosphohistidine” (Bioorg Med Chem Lett, 1999).
